The structures appear in SMILES notation.

A short description of the data set: Saturation concentration (solubility) of salicylic acid in vehicle A (water). It counts as physicochemical.

For the compound `O=C(O)c1ccccc1O` [salicylic acid], the “saturation concentration (Cs, SA-A)” value turned out to be 2 mg/mL.

The record behind these values is patent US20130156832A1, “EUDERMIC COMPOSITIONS” (Miso S.r.I., priority 2010, published 2013).
